In the supplement of paper PMC10307832 one finds relative viability data, which are given here for two cell lines.

Test in all cases: relative viability (nuclei count vs DMSO), 5 days (fraction); higher = more cells survive
Compound in the assay “Wnt-C59 + Pictilisib”: CC1=NC=CC(=C1)C2=CC=C(C=C2)CC(=O)NC3=CC=C(C=C3)C4=CN=CC=C4 [Wnt-C59] + CS(=O)(=O)N1CCN(Cc2cc3nc(-c4cccc5[nH]ncc45)nc(N4CCOCC4)c3s2)CC1 [Pictilisib] (partner 1 µM)
The method, boiled down:
(§1)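 After 5 days of treatment, lung cancer cells in 1536-well plates were fixed and stained in a single step (final 0.05% Triton X-100, 1% formaldehyde, 1 ug/ml Hoechst) and their nuclei counted on 4× images. Treatment had been applied by pin tool the day after seeding as one drug alone or as a fixed anchor-drug dose with five library-drug doses (not always all listed) in √10 steps. Relative viability is the nuclei count of treated wells divided by that of vehicle wells, and values are medians of duplicate plates.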

Compound in the assay “Lapatinib + Luminespib”: CS(=O)(=O)CCNCc1ccc(-c2ccc3ncnc(Nc4ccc(OCc5cccc(F)c5)c(Cl)c4)c3c2)o1 [Lapatinib] + CCNC(=O)c1noc(-c2cc(C(C)C)c(O)cc2O)c1-c1ccc(CN2CCOCC2)cc1 [Luminespib] (partner 0.01 µM)
The method, boiled down:
as §1

Compound in the assay “Lapatinib + Tozasertib”: CS(=O)(=O)CCNCc1ccc(-c2ccc3ncnc(Nc4ccc(OCc5cccc(F)c5)c(Cl)c4)c3c2)o1 [Lapatinib] + Cc1cc(Nc2cc(N3CCN(C)CC3)nc(Sc3ccc(NC(=O)C4CC4)cc3)n2)n[nH]1 [Tozasertib] (partner 0.1 µM)
In a few lines:
as §1

Compound in the assay “Lapatinib + Olaparib”: CS(=O)(=O)CCNCc1ccc(-c2ccc3ncnc(Nc4ccc(OCc5cccc(F)c5)c(Cl)c4)c3c2)o1 [Lapatinib] + O=C(c1cc(Cc2n[nH]c(=O)c3ccccc23)ccc1F)N1CCN(C(=O)C2CC2)CC1 [Olaparib] (partner 8 µM)
In a few lines: as §1

In the case of RERF-LC-KJ, the relative viability in the assay with Wnt-C59 + Pictilisib (first compound 0.001 µM) turned out to be 0.574; with Wnt-C59 + Pictilisib (first compound 0.01 µM) it was 0.543; with Wnt-C59 + Pictilisib (first compound 0.03162 µM), 0.627; in the assay with Wnt-C59 + Pictilisib (first compound 0.1 µM), 0.54; in the assay with Lapatinib + Luminespib (first compound 0.02 µM) it was 1.13; in the assay with Lapatinib + Luminespib (first compound 0.06325 µM) it was 1.25. Further, the relative viability in the assay with Lapatinib + Luminespib (first compound 0.2 µM) turned out to be 1.16; in the assay with Lapatinib + Luminespib (first compound 0.6325 µM) it was 1.2; with Lapatinib + Luminespib (first compound 2 µM), 0.797; with Lapatinib + Tozasertib (first compound 0.02 µM), 0.525; in the assay with Lapatinib + Tozasertib (first compound 0.06325 µM), 0.425; with Lapatinib + Tozasertib (first compound 0.2 µM), 0.436. The relative viability with Lapatinib + Tozasertib (first compound 0.6325 µM) came to 0.413; with Lapatinib + Tozasertib (first compound 2 µM), 0.337; with Lapatinib + Olaparib (first compound 0.02 µM) it was 0.934; in the assay with Lapatinib + Olaparib (first compound 0.06325 µM), 0.896; with Lapatinib + Olaparib (first compound 0.2 µM), 0.947; with Lapatinib + Olaparib (first compound 0.6325 µM) it was 0.811. In the assay with Lapatinib + Olaparib (first compound 2 µM), the relative viability was found to be 0.682.

Regarding NCI-H1651, the relative viability is 0.601 with Wnt-C59 + Pictilisib (first compound 0.001 µM); 0.584 with Wnt-C59 + Pictilisib (first compound 0.01 µM); 0.541 in the assay with Wnt-C59 + Pictilisib (first compound 0.03162 µM); 0.561 with Wnt-C59 + Pictilisib (first compound 0.1 µM); 0.712 with Lapatinib + Luminespib (first compound 0.02 µM); 0.672 in the assay with Lapatinib + Luminespib (first compound 0.06325 µM). Also, the relative viability with Lapatinib + Luminespib (first compound 0.2 µM) was 0.935; with Lapatinib + Luminespib (first compound 0.6325 µM), 0.695; with Lapatinib + Luminespib (first compound 2 µM), 0.712; with Lapatinib + Tozasertib (first compound 0.02 µM), 0.541; with Lapatinib + Tozasertib (first compound 0.06325 µM), 0.622; with Lapatinib + Tozasertib (first compound 0.2 µM) it was 0.508. Besides, the relative viability with Lapatinib + Tozasertib (first compound 0.6325 µM) was determined as 0.443; with Lapatinib + Tozasertib (first compound 2 µM) it was 0.325; in the assay with Lapatinib + Olaparib (first compound 0.02 µM) it was 0.193; with Lapatinib + Olaparib (first compound 0.06325 µM), 0.183; with Lapatinib + Olaparib (first compound 0.2 µM), 0.181; in the assay with Lapatinib + Olaparib (first compound 0.6325 µM), 0.197. Besides, the relative viability with Lapatinib + Olaparib (first compound 2 µM) amounted to 0.178.
